# In article PMC4769088, “Antifungal Activity and Action Mechanism of Histatin 5-Halocidin Hybrid Peptides against Candida ssp” (PLoS ONE, 2016):
# Where a SMILES comes first, the peptide text is derived from it. Bridges are numbered along the chain shown (N, C = ends). Roman numbers before positions name the chains, in order.
# Experiments:
# Candida albicans = type: cell-based; details: 1 μg/ml peptide, in 1 hour, colony count assay
# Procedure: (§1) The candidacidal activities of the peptides were tested by using standard microdilution plate assays, radial diffusion assays and broth dilution assay slightly modified from the procedure recommended by the National Committee for Clinical Laboratory Standards. For the candidacidal assays, C. albicans cells were grown in YPD medium and washed twice with 10 mM sodium phosphate buffer (NaPB; Na2HPO4, NaH2PO4, pH 7.4). The cells (1 x 10^6) were then mixed with different concentrations of peptides and incubated at 30°C with constant shaking for 60 min. For energy depletion experiments, cells were pre-incubated with 10 mM NaPB containing 5 mM NaN3 at 30°C for 60 min before the addition of peptides. The cell suspensions were diluted in 10 mM NaPB and aliquots of 500 cells were spread onto YPD agar plates then incubated for 24 h at 30°C to visualize the surviving colonies. Cell survival was expressed as a percentage of that for the control, and the loss of viability was calculated as [1 x (number of colonies from peptide-treated cells/number of colonies from control cells)] x 100. Candidacidal assays were performed in triplicate. For the radial diffusion assay, C. albicans cells were grown in YPD medium overnight and washed twice with 10 mM NaPB. Washed yeast-phase C. albicans cells (1 x 10^6 CFU) were trapped in thin underlay gels containing 9 mM sodium phosphate, 1 mM sodium citrate buffer, 1% (wt/vol) agarose (A6013; Sigma), and 0.3 mg of Sabouraud dextrose broth (Difco)/ml. After incubation at 37°C for 3 h, a 10 ml overlay gel of 1% agarose and 6% Sabouraud dextrose broth was poured on the underlay gel and then the plates were incubated overnight at 37°C. The clear-zone diameters were measured to the nearest 0.1 mm and graphed against the peptide concentration. Zone diameters were expressed in units (0.1 mm = 1 unit). For the broth dilution assay, the Candida strains were cultured in LYM broth for 18 h at 30°C. The numbers of yeasts were counted using a hemocytometer. […] The antifungal activities were evaluated after 24 h of incubation at 30°C by the observation of visible turbidity the wells. The MIC values were expressed as intervals (a–b), with a representing the highest tested concentration at which microbes continue to grow, and b representing the lowest concentration at which growth inhibition could be detected.
# Fig 4 Killing kinetics of Hst5, P113, di-18Hc, hybrid peptides against Candida albicans. Killing kinetics of peptides against C. albicans was measured by colony count assay. Candida cells were treated with a different concentration of peptides at a determined time. […] Killing percent was calculated with the following equation: Killing % = (number of control cell—number of treated cell)/control cell × 100.
# [1] = CD spectra, secondary structure analysis; type: physicochemical; details: 200 μg/ml peptide
# Procedure: Circular dichroism (CD) spectra of the six peptides (Hst5, P113, HHP1, di-PH2, di-WP2 and di-18Hc) were measured with a J-715 spectropolarimeter (Jasco, Tokyo, Japan). Two hundred micrograms of each peptide was resuspended in 1 ml of 10 mM NaPB (pH 7.0) (i) without other additives, (ii) with 10% laminarin (LAM) or (iii) with 50% trifluoroethanol (TFE) (a known helix-inducing solvent). The spectra were measured at room temperature in a 1-mm-path-length quartz cell. The scanning speed was 10 nm/min (180 to 260 nm), and each spectrum was the average of five scans.
# Fig 3 CD spectra of Hst5, P113, di-18Hc and hybrid peptides. This study was performed with one concentration (200 μg/ml) of each peptide in various buffers: 10 mM sodium phosphate buffer (Red line), 50% TFE in phosphate buffer (green line) and 20 mg of laminarin in phosphate buffer.
# [2] = test system: laminarin (β-1,3-glucan polymer), C. albicans cell wall component; assay: Binding/radial diffusion assay with laminarin; type: cell-based; details: peptide final 180 μg/ml, pre-incubated 2 h at 37°C, radial diffusion assay
# Procedure: as §1, with “hemocytometer. Stock peptide solutions were prepared to a concentration of 320 μg/ml in distilled water, and were then serially diluted twofold, to 5 μg/ml. 100 μl aliquots of the diluted culture media containing candida cells (1 x 10^3) were dispensed into the wells of 96-well polypropylene microtiter plates (Costar 3879, Corning, NY), to which peptide solution (11 μl) was then added.” for “hemocytometer.”
# Binding of hybrid peptides to the surface of C. albicans cells was examined by assessing the inhibitory effect of fungal cell wall components on the antimicrobial activity of the hybrid peptides. 20 μl of a pre-determined concentration of the peptides was added to 80 μl of each polysaccharide (0.07–40 mg/ml in 10 mM NaPB) including laminarin (β-1,3-glucan polymer; Sigma), pustulan (β-1,6-glucan polymer; Calbiochem) or mannan (mannose polymer; Sigma) and incubated for 2 h at 37°C. The inhibitory effects of the polysaccharides on the antimicrobial activity of the peptides were assessed by radial diffusion assay as described above. […]
# Candida albicans cells = assay: Confocal microscopy localization and FITC-peptide/PI uptake assay; type: cell-based; details: FITC-peptides and propidium iodide uptake assay, measured for 60 min
# Procedure: To confirm the killing effect of the peptides, washed Candida cells (1 × 10^7 cells/ml) were treated with the peptides and propidium iodide (PI) was added. For energy depletion experiments, cells were pre-incubated with 10 mM NaPB containing 5 mM NaN3 at 30°C for 60 min before the addition of peptides. Propidium iodide (PI) uptake was measured using a multi reader and calculated with the formula [propidium iodide (PI) uptake value of peptide-treated cells—propidium iodide (PI) value of control cells] C. albicans cells were attached to concanavalin A (Sigma, 1 mg/ml solution in water) coated coverglass in chambered wells (Lab-Tek II). Cells (1 x 10^6) were deposited in each well, and 1 ml of 10 mM NaPB containing 5 μg PI (Sigma) and FITC-labeled peptides (Final concentration 10 μg/ml) were added to the chamber. Confocal images were acquired with an Olympus Fluoview FV10i-DOC (Olympus, Tokyo, Japan). ImageJ software was used for image acquisition and analysis.  Fig 5 Localizations of FITC-peptides in Candida albicans cells. C. albicans cells were incubated for 10 minutes with 10 μg/ml of FITC-peptides and visualized by confocal microscopy. […] FITC-peptides and PI uptake was measured for 60 min in Perkin Elmer 2030 reader (VictorX 3).
compound,measurement,setting,value
CC(C)C[C@H](NC(=O)CNC(=O)[C@H](Cc1c[nH]cn1)NC(=O)[C@H](Cc1c[nH]cn1)NC(=O)[C@H](CCCNC(=N)N)NC(=O)[C@H](CCCCN)NC(=O)[C@H](C)N)C(=O)N[C@@H](CC(N)=O)C(=O)N[C@@H](CSSC[C@H](NC(=O)[C@H](CC(N)=O)NC(=O)[C@H](CC(C)C)NC(=O)CNC(=O)[C@H](Cc1c[nH]cn1)NC(=O)[C@H](Cc1c[nH]cn1)NC(=O)[C@H](CCCNC(=N)N)NC(=O)[C@H](CCCCN)NC(=O)[C@H](C)N)C(=O)N[C@@H](C)C(=O)N[C@@H](CCCCN)C(=O)N[C@@H](Cc1ccccc1)C(=O)N[C@@H](Cc1c[nH]cn1)C(N)=O)C(=O)N[C@@H](C)C(=O)N[C@@H](CCCCN)C(=O)N[C@@H](Cc1ccccc1)C(=O)N[C@@H](Cc1c[nH]cn1)C(N)=O [di-PH2] (I: H-AKRHHGLNCAKFH-NH2 / II: H-AKRHHGLNCAKFH-NH2; disulfide I:9-II:9 (inferred); N-terminus assumed),reduction of cell viability,Candida albicans,99%
same,Secondary structure (%) Beta,[1]; solvent 10mM NaPB (pH 7.0),29.2%
same,Secondary structure (%) Random,[1]; solvent 10mM NaPB (pH 7.0),70.8%
same,Secondary structure (%) Turn,[1]; solvent 10mM NaPB (pH 7.0),0.0%
same,Secondary structure (%) Helix,"[1]; solvent 10mM NaPB (pH 7.0), room temperature, average of five scans",0.0%
same,Secondary structure (%) Beta,[1]; solvent 50% TFE in 10 mM NaPB,32.9%
same,Secondary structure (%) Helix,[1]; solvent 50% TFE in 10 mM NaPB,10.1%
same,Secondary structure (%) Random,[1]; solvent 50% TFE in 10 mM NaPB,51.8%
same,Secondary structure (%) Turn,[1]; solvent 50% TFE in 10 mM NaPB,5.2%
same,laminarin concentration at which antimicrobial activity was drastically decreased by pre-incubation,[2],5 mg/mL
same,FITC intensity in Candida cells,Candida albicans cells,increased in a time dependent manner
